Reference: patent US20130109682A1, “CYCLIC ETHER COMPOUNDS USEFUL AS KINASE INHIBITORS” (NOVARTIS AG, priority 2010, published 2013)

How the values were obtained:
[1] = tested on: KMS11 (human myeloma cell line); assay: Cell proliferation assay (CellTiter-Glo), KMS11; assay type: cell-based; details: Homo sapiens, KMS-11; KMS11-Luc cells
Method in brief: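 KMS11 cells in IMDM with 10% FBS and sodium pyruvate, seeded at 2000 cells/well on assay day. Compound added at 2× to equal volume of cells, incubated 3 days at 37° C. Viability read by CellTiter-Glo luminescence; EC50 derived.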

PIM2 = PIM2 (Homo sapiens, UniProt Q9P1W9); assay: KinaseGlo Pim2 ATP depletion assay; assay type: biochemical
Chain of PIM2 (Q9P1W9 whole entry): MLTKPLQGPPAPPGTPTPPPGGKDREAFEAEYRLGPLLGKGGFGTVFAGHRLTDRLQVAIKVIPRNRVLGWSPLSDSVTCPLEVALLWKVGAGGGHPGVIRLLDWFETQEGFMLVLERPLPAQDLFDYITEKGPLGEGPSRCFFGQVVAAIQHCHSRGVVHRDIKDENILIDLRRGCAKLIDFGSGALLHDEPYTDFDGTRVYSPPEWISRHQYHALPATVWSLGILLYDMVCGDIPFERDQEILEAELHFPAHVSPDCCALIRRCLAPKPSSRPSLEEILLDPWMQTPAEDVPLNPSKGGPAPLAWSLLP
Method in brief: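 Luminescent ATP-depletion read-out of PIM2 phosphorylating BAD peptide (RSRHSSYPAGT-OH). Final conditions: 5 nM PIM2, 4 μM ATP, 10 μM peptide, 2.5% DMSO in 50 mM HEPES pH 7.5, 5 mM MgCl2, 1 mM DTT, 0.05% BSA. Enzyme–peptide preincubated 15 min with compound; reaction run to ~50% ATP depletion.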

GSK3β = GSK3β (Homo sapiens, UniProt P49841); assay: GSK3β ATP depletion assay; assay type: biochemical; details: read-out: GSK3b IC50
Chain of GSK3β (P49841 whole entry, species assumed): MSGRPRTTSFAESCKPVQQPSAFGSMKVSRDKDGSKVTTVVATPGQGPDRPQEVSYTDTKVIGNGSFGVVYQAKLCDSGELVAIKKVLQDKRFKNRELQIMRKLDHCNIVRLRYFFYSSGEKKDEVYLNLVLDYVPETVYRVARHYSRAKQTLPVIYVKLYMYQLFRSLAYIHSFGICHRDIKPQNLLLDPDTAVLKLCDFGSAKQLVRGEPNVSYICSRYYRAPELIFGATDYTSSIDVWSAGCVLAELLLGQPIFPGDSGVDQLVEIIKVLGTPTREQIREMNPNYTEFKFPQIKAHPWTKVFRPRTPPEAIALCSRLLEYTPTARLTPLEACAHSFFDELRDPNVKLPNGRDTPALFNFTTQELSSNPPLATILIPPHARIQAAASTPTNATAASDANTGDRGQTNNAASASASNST
Method in brief: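 Human GSK3β (5 nM) preincubated 15 min with 10 μM biotinylated phospho-CREB peptide in pH 7.5 Tris buffer (15 mM MgCl2, 1 mM DTT, 0.1% BSA, 2.5% DMSO). Reaction started with 2 μM ATP and run to about 50% ATP depletion. Remaining ATP measured by KinaseGlo luminescence.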

PIM1 = PIM1 (Homo sapiens, UniProt P11309); assay: KinaseGlo Pim1 ATP depletion assay; assay type: biochemical
Chain of PIM1 (P11309 whole entry): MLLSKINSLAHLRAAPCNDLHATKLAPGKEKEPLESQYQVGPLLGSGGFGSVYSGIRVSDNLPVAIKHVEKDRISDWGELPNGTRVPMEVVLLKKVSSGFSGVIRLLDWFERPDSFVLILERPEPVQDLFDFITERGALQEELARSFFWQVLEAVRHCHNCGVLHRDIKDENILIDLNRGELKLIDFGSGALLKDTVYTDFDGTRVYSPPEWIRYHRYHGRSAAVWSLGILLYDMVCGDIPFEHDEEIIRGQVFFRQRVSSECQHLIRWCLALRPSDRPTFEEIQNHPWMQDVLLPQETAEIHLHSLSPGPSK
Method in brief: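 2.5 nM PIM1 preincubated 15 min with compound and 40 μM BAD peptide in 50 mM HEPES pH 7.5, 5 mM MgCl2, 1 mM DTT, 0.05% BSA, 2.5% DMSO. The reaction was started with 20 μM ATP (final) and run to about 50% ATP depletion. Remaining ATP read by KinaseGlo Plus luminescence to give IC50.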

PIM3 = PIM3 (Homo sapiens, UniProt Q86V86); assay: KinaseGlo Pim3 ATP depletion assay; assay type: biochemical
Method in brief: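 Kinase was preincubated 15 min with BAD peptide in HEPES pH 7.5/MgCl2/DTT/BSA before ATP was added. Final concentrations were 40 μM ATP, 100 μM BAD peptide and 2.5% DMSO, with 5 nM enzyme. The reaction ran to ~50% ATP depletion and remaining ATP was read by KinaseGlo Plus luminescence.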

| Structure (SMILES) | EC50 [1] | IC50 (PIM2) | IC50 (GSK3β) | IC50 (PIM1) | IC50 (PIM3) |
| --- | --- | --- | --- | --- | --- |
| Nc1cnc(-c2c(F)cccc2F)nc1C(=O)Nc1cnccc1[C@@H]1C[C@H](O)[C@@H](O)[C@H](C2CC2)O1 [Example 205, 5-amino-N-(4-((2S,4S,5R,6S)-6-cyclopropyl-4,5-dihydroxytetrahydro-2H-pyran-2-yl)pyridin-3-yl)-2-(2,6-difluorophenyl)pyrimidine-4-carboxamide] | > 10 µM | 0.0454 µM | 1.87 µM | 0.0373 µM | 0.0697 µM |
| C[C@H]1O[C@@H](c2ccncc2NC(=O)c2nc(-c3nccs3)ccc2N)C[C@@H](O)[C@]1(C)O [Example 147, 3-amino-N-(4-((2R,4R,5S,6R)-4,5-dihydroxy-5,6-dimethyltetrahydro-2H-pyran-2-yl)pyridin-3-yl)-6-(thiazol-2-yl)picolinamide] | > 10 µM | 0.0713 µM | 1.32 µM | 0.0174 µM | 0.0185 µM |
| C=C1[C@@H](O)C[C@@H](c2ccncc2NC(=O)c2nc(-c3c(F)cccc3F)ncc2N)OC12CC2 [Example 6, 5-amino-2-(2,6-difluorophenyl)-N-(4-((5S,7S)-7-hydroxy-8-methylene-4-oxaspiro[2.5]octan-5-yl)pyridin-3-yl)pyrimidine-4-carboxamide] | > 10 µM | 0.28 µM | 0.72 µM | 0.07 µM | 0.0536 µM |
| C[C@H]1O[C@@H](c2ccncc2NC(=O)c2csc(-c3c(F)cccc3F)n2)C[C@@H](O)[C@]1(C)O (stereo in doubt) [Example 109, 2-(2,6-difluorophenyl)-N-(4-((2R,4R,5S,6R)-4,5-dihydroxy-5,6-dimethyltetrahydro-2H-pyran-2-yl)pyridin-3-yl)thiazole-4-carboxamide] | > 10 µM | 3.42 µM | 0.272 µM | 0.068 µM | 0.088 µM |
| C[C@H]1O[C@@H](c2ccncc2NC(=O)c2nc(-c3c(F)cccc3F)c(F)cc2N)C[C@@H](O)[C@]1(C)O [Example 33, 3-amino-6-(2,6-difluorophenyl)-N-(4-((2R,4R,5S,6R)-4,5-dihydroxy-5,6-dimethyltetrahydro-2H-pyran-2-yl)pyridin-3-yl)-5-fluoropicolinamide] | 4.53 µM | 0.002 µM | 0.276 µM | 0.001 µM | 0.002 µM |
| CC[C@]1(O)[C@H](O)C[C@H](c2ccncc2NC(=O)c2nc(-c3ccccc3)ncc2N)O[C@@H]1C [Example 26, 5-amino-N-(4-((2R,4R,5S,6R)-5-ethyl-4,5-dihydroxy-6-methyltetrahydro-2H-pyran-2-yl)pyridin-3-yl)-2-phenylpyrimidine-4-carboxamide] | > 10 µM | 0.029 µM | 0.277 µM | 0.004 µM | 0.002 µM |
| C[C@H]1O[C@@H](c2ccncc2NC(=O)c2csc(-c3c(F)cccc3F)n2)C[C@@H](N)[C@@H]1O [Example 114, N-(4-((2R,4R,5S,6R)-4-amino-5-hydroxy-6-methyltetrahydro-2H-pyran-2-yl)pyridin-3-yl)-2-(2,6-difluorophenyl)thiazole-4-carboxamide] | 1.5 µM | 0.144 µM | 0.652 µM | 0.004 µM | 0.014 µM |
| O=C(Nc1cnccc1[C@H]1C[C@@H](O)[C@@]2(O)CCC[C@H]2O1)c1c[nH]cc(-c2ccccc2)c1=O [Example 181, N-(4-((2R,4R,4aS,7aR)-4,4a-dihydroxyoctahydrocyclopenta[b]pyran-2-yl)pyridin-3-yl)-4-oxo-5-phenyl-1,4-dihydropyridine-3-carboxamide] | > 10 µM | 9.1 µM | 4.21 µM | 0.825 µM | 0.492 µM |

Now from value to molecule:

| EC50 [1] | IC50 (PIM2) | IC50 (GSK3β) | IC50 (PIM1) | IC50 (PIM3) | Structure (SMILES) |
| --- | --- | --- | --- | --- | --- |
| > 10 µM | 1.11 µM | 3.23 µM | 0.01 µM | 0.2 µM | CC[C@@]1(O)[C@H](C)O[C@H](c2ccncc2NC(=O)c2ccc(F)c(-c3c(F)cccc3F)n2)C[C@@H]1O [Example 73, 6-(2,6-difluorophenyl)-N-(4-((2S,4S,5S,6S)-5-ethyl-4,5-dihydroxy-6-methyltetrahydro-2H-pyran-2-yl)pyridin-3-yl)-5-fluoropicolinamide] |
| > 10 µM | 0.012 µM | 0.798 µM | 0.002 µM | 0.003 µM | C[C@@H]1O[C@H](c2ccncc2NC(=O)c2ccc(F)c(-c3c(F)cccc3F)n2)C[C@H](O)[C@H]1O [Example 120, 6-(2,6-difluorophenyl)-N-(4-((2S,4S,5R,6S)-4,5-dihydroxy-6-methyltetrahydro-2H-pyran-2-yl)pyridin-3-yl)-5-fluoropicolinamide] |
| 2.7 µM | 0.0031 µM | 0.636 µM | 0.001 µM | 0.0022 µM | O=C(Nc1cnccc1[C@H]1C[C@@H](O)[C@H](O)[C@@H](C2CC2)O1)c1ccc(F)c(-c2c(F)cccc2F)n1 [Example 211, N-(4-((2R,4R,5S,6R)-6-cyclopropyl-4,5-dihydroxytetrahydro-2H-pyran-2-yl)pyridin-3-yl)-6-(2,6-difluorophenyl)-5-fluoropicolinamide] |
| > 10 µM | 0.023 µM | 0.351 µM | 0.003 µM | 0.005 µM | N#CC[C@H]1O[C@@H](c2ccncc2NC(=O)c2ccc(F)c(-c3c(F)cccc3F)n2)C[C@@H](O)[C@@H]1O [Example 137, N-(4-((2R,4R,5S,6R)-6-(cyanomethyl)-4,5-dihydroxytetrahydro-2H-pyran-2-yl)pyridin-3-yl)-6-(2,6-difluorophenyl)-5-fluoropicolinamide] |
| 1.9 µM | 0.023 µM | 3.06 µM | 0.002 µM | 0.007 µM | C[C@H]1O[C@@H](c2ccncc2NC(=O)c2ccc(F)c(-c3c(F)cccc3F)n2)C[C@@H](N)[C@@H]1O [Example 116, N-(4-((2R,4R,5S,6R)-4-amino-5-hydroxy-6-methyltetrahydro-2H-pyran-2-yl)pyridin-3-yl)-6-(2,6-difluorophenyl)-5-fluoropicolinamide] |
| 2.2 µM | 0.099 µM | 0.689 µM | 0.001 µM | 0.008 µM | CC1C(c2ccncc2NC(=O)c2ccc(F)c(-c3c(F)cccc3F)n2)OC(C)[C@H](O)C1O (stereo in doubt) [Example 66, 6-(2,6-difluorophenyl)-N-(4-((2S,3R,4S,5R,6S)-4,5-dihydroxy-3,6-dimethyltetrahydro-2H-pyran-2-yl)pyridin-3-yl)-5-fluoropicolinamide] |
| 1.9 µM | 0.001 µM | 0.117 µM | 0.001 µM | 0.001 µM | O=C(Nc1cnccc1C1=C[C@@H](O)[C@H](O)[C@@H](CCl)O1)c1ccc(F)c(-c2c(F)cccc2F)n1 [Example 31, N-(4-((2S,3S,4R)-2-(chloromethyl)-3,4-dihydroxy-3,4-dihydro-2H-pyran-6-yl)pyridin-3-yl)-6-(2,6-difluorophenyl)-5-fluoropicolinamide] |
| > 10 µM | 0.799 µM | 2.47 µM | 0.01 µM | 0.042 µM | O=C(Nc1cnccc1[C@@H]1OCC[C@H](CO)O1)c1ccc(F)c(-c2c(F)cccc2F)n1 [Example 100, 6-(2,6-difluorophenyl)-5-fluoro-N-(4-((2R,4R)-4-(hydroxymethyl)-1,3-dioxan-2-yl)pyridin-3-yl)picolinamide] |
| > 10 µM | 0.458 µM | 0.209 µM | 0.0798 µM | 0.143 µM | N#C[C@H]1O[C@@H](c2ccncc2NC(=O)c2ccnc(-c3c(F)cccc3F)n2)C[C@@H](O)[C@@H]1O [Example 149, N-(4-((2R,4R,5S,6R)-6-cyano-4,5-dihydroxytetrahydro-2H-pyran-2-yl)pyridin-3-yl)-2-(2,6-difluorophenyl)pyrimidine-4-carboxamide] |
| 4.34 µM | 0.0037 µM | 0.394 µM | 0.0053 µM | 0.0043 µM | C=C[C@H]1OC(c2ccncc2NC(=O)c2nc(-c3c(F)cccc3F)ncc2N)=C[C@@H](O)[C@@H]1O [Example 144, 5-amino-2-(2,6-difluorophenyl)-N-(4-((2R,3S,4R)-3,4-dihydroxy-2-vinyl-3,4-dihydro-2H-pyran-6-yl)pyridin-3-yl)pyrimidine-4-carboxamide] |
| 8.63 µM | 0.04 µM | 1.47 µM | 0.0186 µM | 0.0206 µM | C[C@@H]1OC(c2ccncc2NC(=O)c2nc(-c3c(F)cccc3F)ncc2N)=C[C@H](O)[C@@]1(C)O [Example 10, 5-amino-2-(2,6-difluorophenyl)-N-(4-((2S,3R,4S)-3,4-dihydroxy-2,3-dimethyl-3,4-dihydro-2H-pyran-6-yl)pyridin-3-yl)pyrimidine-4-carboxamide] |
